Tests used:
Type in all cases: in vivo
[1] = system: velvetleaf (Abutilon theophrasti Medik.) (VL); test: Preemergence herbicide test, soil drench, velvetleaf; details: 10 lbs/A (11.2 kg/ha) soil drench, two weeks after treatment, vs untreated checks; for pest or weed control at 11208.5 g/ha: Abutilon theophrasti, 336 h, read-out: Percent Weed Control VL
Protocol: (§1) To illustrate the effectiveness of the previously described substituted oxadiazines of this invention as preemergence herbicides, 300 mg of the chemical was dissolved in a composition comprising 10 mL acetone to which 30 mg of tile emulsifying agent, ethoxylated sorbitan monolaurate, was added. The solution was diluted to 100 mL with distilled water. Ten milliliters of this 3000 ppm solution was diluted to 250 ppm with distilled water. The chemical was applied at the rate of 10 pounds/acre (11.2 kg/ha) by drenchings 46 mL of the 250 ppm solution on the surface of soil in 4½ inch (11.25 cm) plastic pots wherein seeds of the following weeds had been planted: velvetleaf (Abutilon theophrasti Medik.) (VL), The percent control of the weeds compared to untreated checks was determined two weeks after treatment. TABLE 1 summarizes the results achieved with compounds formulated as indicated above, and the data clearly indicate the good to excellent herbicidal efficacy of compositions of this invention.

[2] = system: jimsonweed (Datura stramonium L.) (JW); test: Preemergence herbicide test, soil drench, jimsonweed; details: 10 lbs/A (11.2 kg/ha) soil drench, two weeks after treatment, vs untreated checks
Protocol: as §1, with “jimsonweed (Datura stramonium L.) (JW),” for “velvetleaf (Abutilon theophrasti Medik.) (VL),”

[3] = system: tall morningglory (Ipomoea purpurea (L.) Roth) (TM); test: Preemergence herbicide test, soil drench, tall morningglory; details: 10 lbs/A (11.2 kg/ha) soil drench, two weeks after treatment, vs untreated checks; for pest or weed control at 11208.5 g/ha: Ipomoea, 336 h, read-out: Percent Weed Control TM
Protocol: as §1, with “tall morningglory (Ipomoea purpurea (L.) Roth) (TM),” for “velvetleaf (Abutilon theophrasti Medik.) (VL),”

[4] = system: barnyardgrass (Echinochloa crus-galli (L.) Beauv.) (BG); test: Preemergence herbicide test, soil drench, barnyardgrass; details: 10 lbs/A (11.2 kg/ha) soil drench, two weeks after treatment, vs untreated checks; for pest or weed control at 11208.5 g/ha: Echinochloa crus-galli, 336 h, read-out: Percent Weed Control BG
Protocol: as §1, with “barnyardgrass (Echinochloa crus-galli (L.) Beauv.) (BG), and” for “velvetleaf (Abutilon theophrasti Medik.) (VL),”

[5] = system: switchgrass (Panicum virgahim L.) (SG); test: Preemergence herbicide test, soil drench, switchgrass; details: 10 lbs/A (11.2 kg/ha) soil drench, two weeks after treatment, vs untreated checks; for pest or weed control at 11208.5 g/ha: Panicum, 336 h, read-out: Percent Weed Control SG
Protocol: as §1, with “planted:” for “planted: velvetleaf (Abutilon theophrasti Medik.) (VL), The percent control of the weeds compared to untreated checks was determined two weeks after treatment. TABLE 1 summarizes the results achieved with compounds formulated as indicated above, and the data clearly indicate the good to excellent herbicidal efficacy of compositions of this invention.”
switchgrass (Panicum virgahim L.) (SG),
(§2) The percent control of the weeds compared to untreated checks was determined two weeks after treatment. TABLE 1 summarizes the results achieved with compounds formulated as indicated above, and the data clearly indicate the good to excellent herbicidal efficacy of compositions of this invention.

[6] = system: green foxtail (Setaria virdis (L.) Beauv.) (GF); test: Preemergence herbicide test, soil drench, green foxtail; details: 10 lbs/A (11.2 kg/ha) soil drench, two weeks after treatment, vs untreated checks; for pest or weed control at 11208.5 g/ha: Setaria, 336 h, read-out: Percent Weed Control GF
Protocol: as §1, with “41⁄2” for “4½”, “green foxtail (Setaria […].) Beauv.) (GF).” for “velvetleaf (Abutilon theophrasti Medik.) (VL),”

[7] = system: prickly sida (Sida spinosa L.) (PS); test: Preemergence herbicide test, soil drench, prickly sida; details: 10 lbs/A (11.2 kg/ha) soil drench, two weeks after treatment, vs untreated checks; for pest or weed control at 11208.5 g/ha: Sida spinosa, 336 h, read-out: Percent Weed Control PS
Protocol: To illustrate the effectiveness of the previously described substituted oxadiazines of this invention as preemergence herbicides, 300 mg of the chemical was dissolved in a composition comprising 10 mL acetone to which 30 mg of tile emulsifying agent, ethoxylated sorbitan monolaurate, was added. The solution was diluted to 100 mL with distilled water. Ten milliliters of this 3000 ppm solution was diluted to 250 ppm with distilled water. […]
prickly sida (Sida spinosa L.) (PS),
as §2

FC(F)(F)C1=NC(C(F)(F)F)(C(F)(F)F)N=C(c2ccc(Cl)cc2)O1 [Compound 5, 2-(4-chlorophenyl)-4,4,6-tris(trifluoromethyl)-4H-1,3,5-oxadiazine]
100%: pest or weed control at 11208.5 g/ha [1] | Percent Weed Control JW [2] | pest or weed control at 11208.5 g/ha [3] | pest or weed control at 11208.5 g/ha [4] | pest or weed control at 11208.5 g/ha [5] | pest or weed control at 11208.5 g/ha [6]

FC(F)(F)C1=NC(C(F)(F)F)(C(F)(F)F)N=C(c2ccccc2C(F)(F)F)O1 [Compound 6, 2,4,4-tris(trifluoromethyl)-6-{(2-trifluoromethyl)phenyl}-4H-1,3,5-oxadiazine]
75%: Percent Weed Control JW [2] | Percent Weed Control SG [5]
50%: Percent Weed Control BG [4]
100%: Percent Weed Control VL [1] | Percent Weed Control TM [3] | Percent Weed Control GF [6]

FC(F)(F)C(F)(F)C1=NC(C(F)(F)F)(C(F)(F)F)N=C(c2ccccc2Cl)O1 [Compound 12, 2-(2-chlorophenyl)-6-(pentafluoroethyl)-4,4-bis(trifluoromethyl)-4H-1,3,5-oxadiazine]
0%: pest or weed control at 11208.5 g/ha [4]
100%: pest or weed control at 11208.5 g/ha [1] | Percent Weed Control JW [2] | pest or weed control at 11208.5 g/ha [3] | pest or weed control at 11208.5 g/ha [6]
75%: pest or weed control at 11208.5 g/ha [5]

FC(F)(F)c1cc(C2=NC(C(F)(F)F)(C(F)(F)F)N=C(C(F)(F)C(F)(F)F)O2)cc(C(F)(F)F)c1 [Compound 18, 2-{3,5-bis(trifluoromethyl)phenyl}-6-(pentafluoroethyl)-4,4-bis(trifluoromethyl)-4H-1,3,5-oxadiazine]
100%: pest or weed control at 11208.5 g/ha [1] | pest or weed control at 11208.5 g/ha [7] | pest or weed control at 11208.5 g/ha [3] | pest or weed control at 11208.5 g/ha [4] | pest or weed control at 11208.5 g/ha [5] | pest or weed control at 11208.5 g/ha [6]

Fc1cc(F)cc(C2=NC(C(F)(F)F)(C(F)(F)F)N=C(C(F)(F)C(F)(F)F)O2)c1 [Compound 19, 2-(3,5-difluorophenyl)-6-(pentafluoroethyl)-4,4-bis(trifluoromethyl)-4H-1,3,5-oxadiazine]
100%: pest or weed control at 11208.5 g/ha [1] | pest or weed control at 11208.5 g/ha [7] | pest or weed control at 11208.5 g/ha [3] | pest or weed control at 11208.5 g/ha [4] | pest or weed control at 11208.5 g/ha [5] | pest or weed control at 11208.5 g/ha [6]

FC(F)(F)C(F)(F)C1=NC(C(F)(F)F)(C(F)(F)F)N=C(c2cc(Cl)cc(Cl)c2)O1 [Compound 21, 2-(3,5-dichlorophenyl)-6-(pentafluoroethyl)-4,4-bis(trifluoromethyl)-4H-1,3,5-oxadiazine]
100%: pest or weed control at 11208.5 g/ha [1] | Percent Weed Control JW [2] | pest or weed control at 11208.5 g/ha [3] | pest or weed control at 11208.5 g/ha [4] | pest or weed control at 11208.5 g/ha [5] | pest or weed control at 11208.5 g/ha [6]

Cc1cccc(C2=NC(C(F)(F)F)(C(F)(F)F)N=C(C(F)(F)C(F)(F)F)O2)c1 [Compound 22, 2-(3-methylphenyl)-6-(pentafluoroethyl)-4,4-bis(trifluoromethyl)-4H-1,3,5-oxadiazine]
0%: pest or weed control at 11208.5 g/ha [3] | pest or weed control at 11208.5 g/ha [4] | pest or weed control at 11208.5 g/ha [5]
100%: pest or weed control at 11208.5 g/ha [1] | Percent Weed Control JW [2]
50%: pest or weed control at 11208.5 g/ha [6]

FC(F)(F)C(F)(F)C(F)(F)C1=NC(C(F)(F)F)(C(F)(F)F)N=C(c2ccc(Br)cc2)O1 [Compound 27, 2-(4-bromophenyl)-6-(heptafluoropropyl)-4,4-bis(trifluoromethyl)-4H-1,3,5-oxadiazine]
95%: pest or weed control at 11208.5 g/ha [3]
0%: pest or weed control at 11208.5 g/ha [4] | pest or weed control at 11208.5 g/ha [5] | pest or weed control at 11208.5 g/ha [6]
100%: pest or weed control at 11208.5 g/ha [1] | pest or weed control at 11208.5 g/ha [7]

Fc1ccc(C2=NC(C(F)(F)F)(C(F)(F)F)N=C(C(F)(F)C(F)(F)C(F)(F)F)O2)cc1 [Compound 28, 2-(4-fluorophenyl)-6-(heptafluoropropyl)-4,4-bis(trifluoromethyl)-4H-1,3,5-oxadiazine]
0%: pest or weed control at 11208.5 g/ha [4] | pest or weed control at 11208.5 g/ha [5] | pest or weed control at 11208.5 g/ha [6]
100%: pest or weed control at 11208.5 g/ha [1] | pest or weed control at 11208.5 g/ha [7] | pest or weed control at 11208.5 g/ha [3]

FC(F)(F)c1cccc(C2=NC(C(F)(F)F)(C(F)(F)F)N=C(C(F)(F)C(F)(F)C(F)(F)F)O2)c1 [Compound 29, 2-(heptafluoropropyl)-4,4-bis(trifluoromethyl)-6-{(3-trifluoromethyl)phenyl}-4H-1,3,5-oxadiazine]
100%: Percent Weed Control VL [1] | Percent Weed Control PS [7] | Percent Weed Control TM [3] | Percent Weed Control BG [4] | Percent Weed Control SG [5] | Percent Weed Control GF [6]

FC(F)(F)c1ccc(C2=NC(C(F)(F)F)(C(F)(F)F)N=C(C(F)(F)C(F)(F)C(F)(F)F)O2)cc1 [Compound 30, 2-(heptafluoropropyl)-4,4-bis(trifluoromethyl)-6-{(4-trifluoromethyl)phenyl}-4H-1,3,5-oxadiazine]
100%: Percent Weed Control VL [1] | Percent Weed Control PS [7] | Percent Weed Control TM [3] | Percent Weed Control BG [4] | Percent Weed Control SG [5] | Percent Weed Control GF [6]

— US6514911B1, “Substituted oxadiazines useful as pesticides” (Uniroyal Chemical Company, Inc., priority 2002, dated 2003)
